Key:
Type in all cases: in vivo
[1] = system: foxtail, green (green foxtail, Setaria viridis); experiment: Test C pre-/postemergence: foxtail, green
Outline: (§1)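 Visual injury scored 0–100 (100 = complete control) against untreated controls after 13–15 greenhouse days. Surfactant-containing solvent formulations applied either to soil after sowing (loam/sand) or over 1- to 4-leaf plants, 2–18 cm tall.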

[2] = system: bermudagrass (Cynodon dactylon); experiment: Test C pre-/postemergence: bermudagrass
Outline: as §1

[3] = system: surinam grass (Brachiaria decumbens); experiment: Test C pre-/postemergence: surinam grass
Outline: as §1

[4] = system: cocklebur (common cocklebur, Xanthium strumarium); experiment: Test C pre-/postemergence: cocklebur
Outline: as §1

[5] = system: goosegrass (Eleusine indica); experiment: Test C pre-/postemergence: goosegrass
Outline: as §1

[6] = system: nightshade (eastern black nightshade, Solanum ptycanthum); experiment: Test C pre-/postemergence: nightshade; conditions: Preemergence
Outline: as §1

[7] = system: common (oilseed) sunflower (Helianthus annuus); experiment: Test C pre-/postemergence: sunflower; conditions: Preemergence
Outline: as §1

[8] = system: barley (winter barley, Hordeum vulgare); experiment: Test C postemergence: barley
Outline: (§2)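 Response values are visual ratings, 0 (no effect) to 100 (complete control), made by comparison with untreated controls 13 to 15 days after postemergence treatment of greenhouse-grown potted plants that were 2 to 18 cm high at spraying.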

[9] = system: canarygrass (Phalaris minor); experiment: Test C postemergence: canarygrass
Outline: as §2

[10] = system: windgrass (Apera spica-venti); experiment: Test C postemergence: windgrass
Outline: as §2

[11] = system: deadnettle (henbit deadnettle, Lamium amplexicaule); experiment: Test C postemergence: deadnettle
Outline: as §2

[12] = Postemergence, 31 g ai/ha, scale 0 to 100 (0 no effect, 100 complete control)
[13] = Postemergence, 62 g ai/ha, scale 0 to 100 (0 no effect, 100 complete control)
[14] = Postemergence, 125 g ai/ha, scale 0 to 100, 0 no effect, 100 complete control
[15] = Postemergence, 250 g ai/ha, scale 0 to 100
[16] = Preemergence, 31 g ai/ha, scale of 0 to 100, 0 is no effect, 100 is complete control
[17] = Preemergence, 62 g ai/ha, scale of 0 to 100, 0 is no effect, 100 is complete control
[18] = Preemergence, 125 g ai/ha, scale 0 to 100, 0 no effect, 100 complete control
[19] = Preemergence, 250 g ai/ha, scale 0 to 100, 0 no effect, 100 complete control
[20] = Preemergence, 62 g ai/ha, scale 0 to 100, 0 no effect, 100 complete control
[21] = 31 g ai/ha, scale of 0 to 100, 0 is no effect, 100 is complete control
[22] = 62 g ai/ha, scale of 0 to 100, 0 is no effect, 100 is complete control
[23] = 125 g ai/ha, scale 0 to 100, 0 no effect, 100 complete control
[24] = 250 g ai/ha, scale 0 to 100, 0 no effect, 100 complete control
[25] = 31 g ai/ha, scale 0 to 100 (0 no effect, 100 complete control)
[26] = 62 g ai/ha, scale 0 to 100 (0 no effect, 100 complete control)

Cc1nn(-c2ccc(C(F)(F)F)cc2)nc1Oc1ccnc(C(F)(F)F)c1 [Compound 120]
25: Plant response rating, Canarygrass [9, 25]
90: Plant response rating, Foxtail, Green [1, 16] | Plant response rating, Foxtail, Green [1, 17] | Plant response rating, Foxtail, Green [1, 18] | Plant response rating, Foxtail, Green [1, 19] | Plant response rating, Canarygrass ([9]; 250 g ai/ha, scale 0 to 100) | Plant response rating, Windgrass [10, 23]
60: Plant response rating, Canarygrass [9, 23]
10: Plant response rating, Bermudagrass [2, 15] | Plant response rating, Goosegrass [5, 14]
55: Plant response rating, Barley ([8]; 250 g ai/ha, scale 0 to 100) | Plant response rating, Windgrass [10, 26]
35: Plant response rating, Canarygrass [9, 26]
40: Plant response rating, Barley [8, 23]
45: Plant response rating, Cocklebur [4, 12] | Plant response rating, Goosegrass [5, 15]
20: Plant response rating, Surinam Grass [3, 14] | Plant response rating, Surinam Grass [3, 15] | Plant response rating, Barley [8, 25]
30: Plant response rating, Barley [8, 26]
50: Plant response rating, Cocklebur [4, 13] | Plant response rating, Windgrass [10, 25]
5: Plant response rating, Bermudagrass [2, 12] | Plant response rating, Bermudagrass [2, 13] | Plant response rating, Bermudagrass [2, 14] | Plant response rating, Surinam Grass [3, 12] | Plant response rating, Surinam Grass [3, 13] | Plant response rating, Cocklebur [4, 19] | Plant response rating, Goosegrass [5, 12] | Plant response rating, Goosegrass [5, 13] | Plant response rating, Sunflower [7, 24]
65: Plant response rating, Surinam Grass [3, 16] | Plant response rating, Cocklebur [4, 14] | Plant response rating, Cocklebur [4, 15]
85: Plant response rating, Foxtail, Green [1, 13]
15: Plant response rating, Foxtail, Green [1, 12]
100: Plant response rating, Foxtail, Green [1, 14] | Plant response rating, Foxtail, Green [1, 15] | Plant response rating, Bermudagrass [2, 19] | Plant response rating, Surinam Grass [3, 19] | Plant response rating, Deadnettle [11, 25] | Plant response rating, Deadnettle [11, 26] | Plant response rating, Deadnettle [11, 23] | Plant response rating, Deadnettle ([11]; 250 g ai/ha, scale 0 to 100)
95: Plant response rating, Surinam Grass [3, 17] | Plant response rating, Nightshade [6, 21] | Plant response rating, Nightshade [6, 22] | Plant response rating, Nightshade [6, 23] | Plant response rating, Nightshade [6, 24]
0: Plant response rating, Cocklebur [4, 16] | Plant response rating, Cocklebur [4, 20] | Plant response rating, Sunflower [7, 21] | Plant response rating, Sunflower [7, 22] | Plant response rating, Sunflower [7, 23]
98: Plant response rating, Bermudagrass [2, 16] | Plant response rating, Bermudagrass [2, 20] | Plant response rating, Bermudagrass [2, 18] | Plant response rating, Surinam Grass [3, 18] | Plant response rating, Goosegrass [5, 16] | Plant response rating, Goosegrass [5, 17] | Plant response rating, Goosegrass [5, 18] | Plant response rating, Goosegrass [5, 19]

COc1nn(-c2ccc(C(F)(F)F)cc2)nc1Cc1ccnc(C(F)F)c1 [Compound 138]
55: Plant response rating, Surinam Grass [3, 16] | Plant response rating, Canarygrass [9, 26] | Plant response rating, Windgrass [10, 23]
45: Plant response rating, Bermudagrass [2, 13] | Plant response rating, Surinam Grass [3, 12]
100: Plant response rating, Bermudagrass [2, 16] | Plant response rating, Bermudagrass [2, 17] | Plant response rating, Bermudagrass [2, 18] | Plant response rating, Bermudagrass [2, 19] | Plant response rating, Surinam Grass [3, 19] | Plant response rating, Goosegrass [5, 16] | Plant response rating, Goosegrass [5, 17] | Plant response rating, Goosegrass [5, 18] | Plant response rating, Goosegrass [5, 19] | Plant response rating, Deadnettle [11, 26] | Plant response rating, Deadnettle [11, 23] | Plant response rating, Deadnettle ([11]; 250 g ai/ha, scale 0 to 100)
60: Plant response rating, Barley ([8]; 250 g ai/ha, scale 0 to 100)
5: Plant response rating, Cocklebur [4, 16] | Plant response rating, Cocklebur [4, 17] | Plant response rating, Goosegrass [5, 12] | Plant response rating, Sunflower [7, 21]
95: Plant response rating, Foxtail, Green [1, 17] | Plant response rating, Foxtail, Green [1, 18] | Plant response rating, Foxtail, Green [1, 19] | Plant response rating, Bermudagrass [2, 15] | Plant response rating, Nightshade [6, 22]
90: Plant response rating, Foxtail, Green [1, 14] | Plant response rating, Foxtail, Green [1, 15] | Plant response rating, Foxtail, Green [1, 16] | Plant response rating, Nightshade [6, 21] | Plant response rating, Canarygrass ([9]; 250 g ai/ha, scale 0 to 100)
85: Plant response rating, Foxtail, Green [1, 13] | Plant response rating, Surinam Grass [3, 18] | Plant response rating, Cocklebur [4, 14] | Plant response rating, Cocklebur [4, 15]
70: Plant response rating, Cocklebur [4, 13] | Plant response rating, Canarygrass [9, 23]
25: Plant response rating, Goosegrass [5, 13]
65: Plant response rating, Surinam Grass [3, 14] | Plant response rating, Cocklebur [4, 12]
30: Plant response rating, Sunflower [7, 23] | Plant response rating, Sunflower [7, 24] | Plant response rating, Barley [8, 26] | Plant response rating, Canarygrass [9, 25]
20: Plant response rating, Bermudagrass [2, 12]
80: Plant response rating, Surinam Grass [3, 17] | Plant response rating, Goosegrass [5, 15] | Plant response rating, Windgrass ([10]; 250 g ai/ha, scale 0 to 100)
35: Plant response rating, Foxtail, Green [1, 12] | Plant response rating, Barley [8, 23]
50: Plant response rating, Surinam Grass [3, 13] | Plant response rating, Goosegrass [5, 14] | Plant response rating, Windgrass [10, 25] | Plant response rating, Windgrass [10, 26]
10: Plant response rating, Sunflower [7, 22] | Plant response rating, Barley [8, 25]
98: Plant response rating, Nightshade [6, 23] | Plant response rating, Nightshade [6, 24] | Plant response rating, Deadnettle [11, 25]
15: Plant response rating, Cocklebur [4, 18] | Plant response rating, Cocklebur [4, 19]
75: Plant response rating, Bermudagrass [2, 14]

COc1nn(-c2cccc(F)c2)nc1Cc1ccnc(C(F)(F)F)c1 [Compound 139]
80: Plant response rating, Bermudagrass [2, 15] | Plant response rating, Goosegrass [5, 15] | Plant response rating, Canarygrass ([9]; 250 g ai/ha, scale 0 to 100) | Plant response rating, Windgrass [10, 23]
65: Plant response rating, Surinam Grass [3, 17]
40: Plant response rating, Bermudagrass [2, 13] | Plant response rating, Surinam Grass [3, 15] | Plant response rating, Goosegrass [5, 13] | Plant response rating, Barley ([8]; 250 g ai/ha, scale 0 to 100) | Plant response rating, Canarygrass [9, 25]
100: Plant response rating, Foxtail, Green [1, 14] | Plant response rating, Foxtail, Green [1, 15] | Plant response rating, Bermudagrass [2, 17] | Plant response rating, Bermudagrass [2, 18] | Plant response rating, Bermudagrass [2, 19] | Plant response rating, Goosegrass [5, 17] | Plant response rating, Goosegrass [5, 18] | Plant response rating, Goosegrass [5, 19] | Plant response rating, Deadnettle ([11]; 250 g ai/ha, scale 0 to 100)
90: Plant response rating, Foxtail, Green [1, 16] | Plant response rating, Foxtail, Green [1, 17] | Plant response rating, Foxtail, Green [1, 19]
10: Plant response rating, Surinam Grass [3, 12] | Plant response rating, Sunflower [7, 24] | Plant response rating, Barley [8, 26]
0: Plant response rating, Cocklebur [4, 17] | Plant response rating, Cocklebur [4, 18] | Plant response rating, Sunflower [7, 21] | Plant response rating, Sunflower [7, 22]
60: Plant response rating, Goosegrass [5, 14] | Plant response rating, Canarygrass [9, 23]
35: Plant response rating, Bermudagrass [2, 12] | Plant response rating, Surinam Grass [3, 13] | Plant response rating, Surinam Grass [3, 14] | Plant response rating, Barley [8, 23]
5: Plant response rating, Cocklebur [4, 19] | Plant response rating, Sunflower [7, 23] | Plant response rating, Barley [8, 25]
85: Plant response rating, Surinam Grass [3, 18] | Plant response rating, Nightshade [6, 23]
70: Plant response rating, Windgrass [10, 26]
95: Plant response rating, Foxtail, Green [1, 12] | Plant response rating, Foxtail, Green [1, 13] | Plant response rating, Deadnettle [11, 25] | Plant response rating, Deadnettle [11, 26]
15: Plant response rating, Surinam Grass [3, 16] | Plant response rating, Goosegrass [5, 12]
98: Plant response rating, Bermudagrass [2, 16] | Plant response rating, Surinam Grass [3, 19] | Plant response rating, Goosegrass [5, 16] | Plant response rating, Nightshade [6, 24] | Plant response rating, Deadnettle [11, 23]
55: Plant response rating, Bermudagrass [2, 14]
50: Plant response rating, Windgrass [10, 25]
45: Plant response rating, Canarygrass [9, 26]
75: Plant response rating, Nightshade [6, 22]

Reference: patent US9302999B2, “Substituted triazoles as herbicides” (E. I. DU PONT DE NEMOURS AND COMPANY, priority 2012, dated 2016)
